Laboratory results from US20240368163A1, “COMPOUNDS AND METHODS FOR MODULATING SPLICING” (REMIX THERAPEUTICS INC., priority 2021, published 2024).

How the values were obtained:
Assay type in all cases: cell-based, human
Target C [1] = test: Splicing RT-qPCR panel, Target C canonical junction (CJ) mRNA; details: Homo sapiens, RT-qPCR panel, canonical junction mRNA; compound concentration having 50% response in CJ decrease; read-out: Target C IC50 (decrease in CJ mRNA levels)
Protocol: (§1) Compounds described herein were used to modulate RNA transcript abundance in cells. The expression of a target mRNA was measured by detecting the formation of an exon-exon junction in the canonical transcript (CJ). A compound mediated exon-inclusion event was detected by observing an increase in formation of a new junction with an alternative exon (AJ). Real-time qPCR assays were used to detect these splicing switches and interrogate the potency of various compounds towards different target genes. A high-throughput real time quantitative PCR (RT-qPCR) assay was developed to measure these two isoforms of the mRNA (CJ and AJ) for exemplary genes, such as HTT, SMN2, and MYB, together with a control housekeeping gene, GAPDH or GUSB or PPIA, used for normalization. Briefly, the A673 or K562 cell line was treated with various compounds described herein (e.g., compounds of Formula (I)). After treatment, the levels of the HTT, MYB, or SMN2 mRNA targets were determined from each sample of cell lysate by cDNA synthesis followed by qPCR.
(§2) The A673 cell line was cultured in DMEM with 10% FBS. Cells were diluted with full growth media and plated in a 96-well plate (15,000 cells in 100 ul media per well). The plate was incubated at 37° C. with 5% CO2 for 24 hours to allow cells to adhere. An 11-point 3-fold serial dilution of the compounds was made in DMSO then diluted in media in an intermediate plate. Compounds were transferred from the intermediate plate to the cell plate with the top dose at a final concentration of 10 uM in the well. Final DMSO concentration was kept at or below 0.25%. The cell plate was returned to the incubator at 37° C. with 5% CO2 for an additional 24 hours.
(§3) The K562 cell line was cultured in IMDM with 10% FBS. For K562, cells were diluted with full growth media and plated in either a 96-well plate (50,000 cells in 50 uL media per well) or a 384-well plate (8,000-40,000 cells in 45 uL media per well). An 11-point 3-fold serial dilution of the compounds were made in DMSO then diluted in media in an intermediate plate. Compound was transferred from the intermediate plate to the cell plate with the top dose at a final concentration of 10 uM in the well. Final DMSO concentration was kept at or below 0.25%. Final volume was 100 uL for 96-well plate and 50 uL for 384-well plate. The cell plate was then placed in an incubator at 37° C. with 5% CO2 for 24 hours.
(§4) The cells were then gently washed with 50 uL-100 uL cold PBS before proceeding to addition of lysis buffer. 30 uL-50 μL of room temperature lysis buffer with DNAse I (and optionally RNAsin) was added to each well. Cells were shaken/mixed thoroughly at room temperature for 5-10 minutes for lysis to take place and then 3 uL-5 μL of room temperature stop solution was added and wells were shaken/mixed again. After 2-5 minutes, the cell lysate plate was transferred to ice for RT-qPCR reaction setup. The lysates could also be frozen at −80° C. for later use.
(§5) In some cases, a direct lysis buffer was used. An appropriate volume of 3× lysis buffer (10 mM Tris, 150 mM NaCl, 1.5%-2.5% Igepal and 0.1-1 U/uL RNAsin, pH 7.4) was directly added to either K562 or A673 cells in media and mixed by pipetting 3 times. The plates were then incubated at room temperature with shaking/rocking for 20-50 minutes to allow for lysis to take place. After this time, the cell lysate plate was transferred to ice to set up for the RT-qPCR reactions. The lysates could also be frozen at −80° C. for later use.
(§6) To set up 10 uL RT-qPCR reactions, cell lysates were transferred to 384-well qPCR plates containing the master mix according to the table below. The plates were sealed, gently vortexed, and spun down before the run. The volumes were adjusted accordingly in some instances where the reaction was carried in 20 μL. The table below summarizes the components of the RT-qPCR reactions:
(§7) The RT-qPCR reaction was performed using a QuantStudio (ThermoFisher) under the following fast cycling conditions. […]

HTT [2] = test: HiBiT protein abundance assay, HTT; details: Homo sapiens, K562, 24 h, Table 13A, modified K562 cells
How it was run: (§8)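 HiBiT-tagged endogenous targets in K562 cells treated 24 h at 37° C. with 10-point 3-fold dilutions (top 10 μM, DMSO ≤0.25%). Luminescence read after lytic LgBiT detection; response normalised to unmodified-cell and DMSO controls, IC50 interpolated at 50% from four-parameter logistic fit.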

HTT [3] = test: Splicing RT-qPCR assay, HTT mRNA canonical junction (CJ) and alternative junction (AJ); details: Homo sapiens; for AC50: increase in AJ mRNA
Protocol: as §1, §2, §3, §4, §5, §6, §7

MYB [4] = test: HiBiT protein abundance assay, MYB; details: Homo sapiens, K562, 24 h, Table 13A, modified K562 cells
How it was run: as §8

Target C [5] = test: HiBiT protein abundance assay, Target C; details: Homo sapiens, K562, 24 h, Table 13A, modified K562 cells
How it was run: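 HiBiT knock-in K562-derived cells seeded at 10000/well and treated with 10-point 3-fold dilutions (top final 10 μM, ≤0.25% DMSO) for 24 h at 37 °C. Lytic HiBiT luminescence normalised to unmodified-cell and DMSO controls; IC50 from 4-parameter fit at 50% abundance.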

MYB [6] = test: Splicing RT-qPCR assay, MYB mRNA canonical junction (CJ) and alternative junction (AJ); details: Homo sapiens; for AC50: increase in AJ mRNA
How it was run: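 A673 or K562 cells treated 24 h at 37 °C with 11-point 3-fold dilutions, top 10 uM, DMSO ≤0.25%. Lysates read by RT-qPCR for CJ and AJ isoforms, normalized to GAPDH, GUSB or PPIA; ΔΔCt vs DMSO converted to RQ, then percent response.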

SMN2 = test: Splicing RT-qPCR panel, SMN2 canonical junction (CJ) mRNA; details: Homo sapiens, RT-qPCR panel, canonical junction mRNA; compound concentration having 50% response in CJ decrease; read-out: SMN2 IC50 (decrease in CJ mRNA levels)
Protocol: as §1, §2, §3, §4, §5, §6, §7

[7] = 24 h, decrease in CJ mRNA, A673 or K562 cells, 24 hours treatment, RT-qPCR, read-out: HTT CJ IC50
[8] = 24 h, A673 or K562 cells, 24 hours treatment, RT-qPCR
[9] = RT-qPCR panel, canonical junction mRNA, compound concentration having 50% response in CJ decrease, read-out: HTT IC50 (decrease in CJ mRNA levels)
[10] = 24 h, decrease in CJ mRNA, A673 or K562 cells, 24 hours treatment, RT-qPCR, read-out: MYB CJ IC50
[11] = RT-qPCR panel, canonical junction mRNA, compound concentration having 50% response in CJ decrease, read-out: MYB IC50 (decrease in CJ mRNA levels)

| SMILES | IC50 (Target C [1]) [µM] | IC50 (HTT [2]) [µM] | IC50 (HTT [3]; [7]) [µM] | AC50 (HTT [3]; [8]) [µM] | IC50 (HTT [3]; [9]) [µM] | IC50 (MYB [4]) [µM] | IC50 (Target C [5]) [µM] | IC50 (MYB [6]; [10]) [µM] | AC50 (MYB [6]; [8]) [µM] | IC50 (MYB [6]; [11]) [µM] | IC50 (SMN2) [µM] |
| --- | --- | --- | --- | --- | --- | --- | --- | --- | --- | --- | --- |
| c1nc2c(-c3cn[nH]c3)ccc(-c3ccc(N4CC5(CCCNC5)C4)nn3)c2s1 [Compound 187] | > 10 | 1 to 10 | > 10 | > 10 | > 10 | 1 to 10 | > 10 | > 10 | > 10 | > 10 | 1 to 10 |
| c1nc2c(-c3cn[nH]c3)ccc(-c3ccc(N4CCC5(CC4)CNC5)nn3)c2s1 [Compound 188] | > 10 | > 10 | > 10 | > 10 | > 10 | > 10 | > 10 | > 10 | > 10 | > 10 | > 10 |
| c1nc2c(-c3cn[nH]c3)ccc(-c3ccc(N4CCCC5(CNC5)C4)nn3)c2s1 [Compound 189] | > 10 | > 10 | > 10 | > 10 | > 10 | > 10 | > 10 | > 10 | > 10 | > 10 | > 10 |
| c1nc2c(-c3cn[nH]c3)ccc(-c3ccc(N4CCC5(CCNCC5)C4)nn3)c2s1 [Compound 190] | > 10 | > 10 | > 10 | > 10 | > 10 | > 10 | > 10 | > 10 | > 10 | > 10 | > 10 |
| c1nc2c(-c3cn[nH]c3)ccc(-c3ccc(N4CCC5(CCCNC5)C4)nn3)c2s1 (stereo not shown) [Compound 191] | > 10 | 1 to 10 | > 10 | > 10 | > 10 | 1 to 10 | > 10 | > 10 | > 10 | > 10 | 1 to 10 |
| c1nc2c(-c3cn[nH]c3)ccc(-c3ccc(N4CCC5(CCNC5)CC4)nn3)c2s1 [Compound 192] | > 10 | > 10 | > 10 | > 10 | > 10 | > 10 | > 10 | > 10 | > 10 | > 10 | > 10 |
| c1nc2c(-c3cn[nH]c3)ccc(-c3ccc(N4CCCC5(CCNC5)C4)nn3)c2s1 (stereo not shown) [Compound 193] | > 10 | > 10 | > 10 | > 10 | > 10 | 1 to 10 | > 10 | > 10 | > 10 | > 10 | > 10 |
| c1nc2c(-c3cn[nH]c3)ccc(-c3ccc(NC4CNC4)nn3)c2s1 [Compound 196] | > 10 | > 10 | > 10 | > 10 | > 10 | > 10 | > 10 | > 10 | > 10 | > 10 | > 10 |
